Values quoted from earlier work in patent US20230106731A1, “INHIBITORS OF MUTANT FAMILY TYROSINE-KINASES” (Spectrum Pharmaceuticals, Inc., priority 2017, published 2023).

What was measured:
EGFR/HER2 exon 20 mutant = EGFR/HER2 exon 20 mutant patients
[1] = system: EGFR exon 20 driven NSCLC

## CS(=O)(=O)CCNCc1ccc(-c2ccc3ncnc(Nc4ccc(OCc5cccc(F)c5)c(Cl)c4)c3c2)o1 [lapatinib]
EGFR/HER2 exon 20 mutant
  activity in patients: limited activity

## CCOc1cc2ncc(C#N)c(Nc3ccc(OCc4ccccn4)c(Cl)c3)c2cc1NC(=O)/C=C/CN(C)C [neratinib]
EGFR/HER2 exon 20 mutant
  activity in patients: limited activity

## C=CC(=O)Nc1cc(Nc2nccc(-c3cn(C)c4ccccc34)n2)c(OC)cc1N(C)CCN(C)C [osimertinib]
[1]
  activity in patient derived xenograft model: minimal activity
